Consider one compound from PMC12703733, “Probing Guanidino Pendant or Bridged Groups in Cyclic Antimicrobial Peptides Derived from Temporin L: A Strategy to Improve Efficacy against Gram-Negative Bacteria” (Journal of Medicinal Chemistry, 2025).

One data set deals with B. megaterium BM11. More on the design: method as in Bellavita et al. The following applies: previously determined for peptide 12, ref Bellavita et al., cited from earlier work.
Details of data set [1]: method as in Bellavita et al. The following applies: CD in H2O; previously determined for peptide 12; ref Bellavita et al.; cited from earlier work.
For data set [2], the system named is S. epidermidis ATCC 12228. More on the design: method as in Bellavita et al. The following applies: previously determined for peptide 12, ref Bellavita et al., cited from earlier work.
Data set [3] deals with Gram-negative bacteria tested. The experiment in a line: MIC panel, Gram-negative strains (geometric mean). Type of data set: cell-based. The following applies: geometric mean of the MICs against Gram-negative bacteria tested. The protocol:
(§1) The antimicrobial efficacy of the TLcyc analogues was assessed against a representative panel of Gram-positive and Gram-negative bacterial strains, by determining their minimal inhibitory concentrations (MIC), as summarized in Table . To provide an integrated measure of antimicrobial potency, we calculated the geometric mean (GM) of MIC values across all strains (GMall), as well as separately for Gram-positive (GMGram+) and Gram-negative (GMGram–) bacteria.
(§2) Bacterial strains used in this study were the Gram-positive S. aureus ATCC 25923, S. epidermidis ATCC 12228, B. megaterium BM11, S. agalactiae ATCC 27591, E. faecalis ATCC 29212 and the Gram-negative E. coli ATCC 25922, P. aeruginosa ATCC 27853, A. baumannii ATCC 19606, E. coli D21 and P. aeruginosa PAO1. […] Bacterial cells in the mid log phase were diluted in Muller Hinton (MH) at a concentration of 2 × 10^6 cell/mL. Aliquots of 50 μL of this bacterial suspension were added to 50 μL of MH containing serial 2-fold dilutions of the peptides (from 100 to 0.19 μM) in the wells a 96-well plate. Ciprofloxacin was used as antibiotic control. The plate was then incubated at 37 °C. MICs were obtained from three identical readings of four independent experiments.

The test system of another data set is all bacteria tested. As to the kind of experiment: MIC panel, geometric mean over all strains. Type of data set: cell-based. The following applies: geometric mean of the MICs against all bacteria tested. As for the experimental part: as §1, §2
In a further data set the test system is E. coli D21. As to the kind of experiment: microbe, parasite or virus in culture. The settings on record: D21. Format: cell-based. The essentials:
(§3)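 Mid-log bacteria diluted to 2 × 10^6 cell/mL in Mueller Hinton broth and incubated with compound at 37 °C; ciprofloxacin as control. MICs from three identical readings across four independent experiments.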

A further data set deals with S. agalactiae ATCC 27591. As to the kind of experiment: microbe, parasite or virus in culture. Format: cell-based. The settings on record: ATCC 27591. In short, it runs like this: as §3
In the next data set the test system is P. aeruginosa PAO1. As to the kind of experiment: microbe, parasite or virus in culture. Type of data set: cell-based. The following applies: PAO1. The essentials: as §3
A further data set concerns E. faecalis ATCC 29212. As to the kind of experiment: microbe, parasite or virus in culture. Type of data set: cell-based. The following applies: ATCC 29212. In short, it runs like this:
as §3

The subject of data set [4] is Gram-positive bacteria tested. The experiment in a line: MIC panel, Gram-positive strains (geometric mean, range). Format: cell-based. The following applies: geometric mean of the MICs against Gram-positive bacteria tested. As for the experimental part: as §1, §2
A further data set deals with A. baumannii ATCC 19606. Further details: method as in Bellavita et al. The settings on record: previously determined for peptide 12, ref Bellavita et al., cited from earlier work.
A further data set deals with S. aureus ATCC 25923. Further details: method as in Bellavita et al. The following applies: previously determined for peptide 12, ref Bellavita et al., cited from earlier work.
For the next data set, the system named is P. aeruginosa ATCC 27853. Further details: method as in Bellavita et al. The settings on record: previously determined for peptide 12, ref Bellavita et al.; cited from earlier work.
The test system of a further data set is E. coli ATCC 25922. Further details: method as in Bellavita et al. The following applies: previously determined for peptide 12, ref Bellavita et al., cited from earlier work.

SMILES strings stand for the structures. In brackets after ≈: the same amount, converted by molar mass. Read-outs that look alike come from different tables or passages of the source. Marks after values point to notes of the source that are not given here. Bridge positions count the residues as written; N and C are the ends. Square brackets hold non-standard residues; d marks the D form. Peptide text beside a SMILES is read from it.

`CC[C@H](C)[C@H](NC(=O)[C@H](CCCNC(=N)N)NC(=O)[C@@H]1CCC(=O)NCCCC[C@H](NC(=O)[C@H](Cc2ccccc2)NC(=O)[C@H](Cc2c[nH]c3ccccc23)NC(=O)[C@@H]2CCCN2C(=O)[C@@H](NC(=O)[C@@H](N)Cc2ccccc2)C(C)C)C(=O)N[C@@H](CCCCN)C(=O)N[C@@H](Cc2ccccc2)C(=O)N[C@H](CC(C)C)C(=O)N1)C(=O)N[C@@H](CC(C)C)C(N)=O` [Peptide 1, FVPWF[KKFlE]RIL] (H-FVPWFKKF[dL]ERIL-NH2; lactam 6-10): the MIC is 1.56 ^a μM in the data set with B. megaterium BM11 (listed as 1 (TL cyc )); 1.56 µM (≈ 2.66 µg/mL) in the data set on B. megaterium BM11; 3.12 ^a μM in data set [2] (listed as 1 (TL cyc )); 3.12 µM (≈ 5.32 µg/mL) in data set [2]; 12.5 µM (≈ 21.3 µg/mL) in the data set with E. coli D21; 3.12 µM (≈ 5.32 µg/mL) against S. agalactiae ATCC 27591. Further, the MIC was 25 µM (≈ 42.6 µg/mL) with P. aeruginosa PAO1; 6.25 µM (≈ 10.7 µg/mL) in the data set on E. faecalis ATCC 29212; 3.12 ^a μM in the data set on A. baumannii ATCC 19606 (listed as 1 (TL cyc )); 3.12 µM (≈ 5.32 µg/mL) in the data set on A. baumannii ATCC 19606; 3.12 ^a μM in the data set on S. aureus ATCC 25923 (listed as 1 (TL cyc )); 3.12 µM (≈ 5.32 µg/mL) in the data set on S. aureus ATCC 25923. In addition, the MIC in the data set on P. aeruginosa ATCC 27853 was 100 ^a μM; in the data set on E. coli ATCC 25922 (listed as 1 (TL cyc )), 25 ^a μM; in the data set with E. coli ATCC 25922, 25 µM (≈ 42.6 µg/mL). Further, the “Content in water (%) random” value in [1] is given as 55%. The “Content in water (%) α-helix” value in [1] is 2%. Besides, the “Content in water (%) β-strand” value in [1] is given as 41%. Moreover, in [3], the “geometric mean GMGram–” value is 18.9 µM. The “geometric mean GMall” value in the data set on all bacteria tested worked out at 7.67 µM. Besides, the “geometric mean GMGram+” value in [4] came out at 3.12 µM.
